We go through five compounds from patent publication US11366121B2, “Specific GNAI:GIV interaction screening assays, methods and compositions” (The Regents of the University of California, priority 2017, dated 2022).

In general, IC50 refers to the midpoint of a concentration-inhibition curve. The term Ki denotes the dissociation constant of the complex between target and ligand, obtained from inhibition or displacement. Low values mean tighter binding, high ones weaker binding.

For one assay, the target named is GIV:Gαi3 interaction (Homo sapiens, UniProt P08754). The assay can be described thus: fluorescence polarization (FP) assay monitoring the GIV:Gαi3 interaction, dose response curves. The format is binding. The conditions noted are these: FIG. 11D. The protocol: (§1) FIGS. 11A-11E. A HTS-compatible fluorescence polarization (FP) assay to monitor the GIV:Gαi3 interaction.
Sequence of GIV:Gαi3 interaction (P08754 whole entry): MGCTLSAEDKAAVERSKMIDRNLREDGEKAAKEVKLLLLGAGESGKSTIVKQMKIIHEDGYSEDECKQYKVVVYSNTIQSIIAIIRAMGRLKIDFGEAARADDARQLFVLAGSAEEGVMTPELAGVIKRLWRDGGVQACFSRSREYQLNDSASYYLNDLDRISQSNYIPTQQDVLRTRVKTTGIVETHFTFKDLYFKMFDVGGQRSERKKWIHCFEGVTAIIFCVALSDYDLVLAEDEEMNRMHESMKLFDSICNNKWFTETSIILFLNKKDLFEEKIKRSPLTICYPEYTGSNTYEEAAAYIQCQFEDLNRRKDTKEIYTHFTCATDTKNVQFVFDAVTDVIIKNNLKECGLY
(§2) FIG. 14. Kd's determined from fluorescence polarization assays with FITC peptides and hGαi3.
(§3) A pilot screen of the LOPAC1280 library (collection of known bioactive compounds) was conducted and identified lead compounds with inhibitory activity (FIG. 11A). A virtual ligand screen (VLS) of the same library (LOPAC1280) was conducted using in silico docking methods (FIG. 11B). The results from both screens were compared. […] From the virtual screen 7 ‘hits’ (FIG. 11B) were identified. Importantly, 2 of the virtual screen hits matched the results from the FP assay and a third was validated as a GIV:Gαi inhibitor. Compounds were validated by dose response curves (FIG. 11D). […] None of the other 4 hits predicted by the VLS inhibited binding.

Another assay has as its target GIV:Gαi (Homo sapiens, UniProt P08754). As to the kind of experiment: GST-pulldown assay confirming hits. In kind it is binding. Particulars: FIG. 11E. Here is the method: as §3
The target of assay [1] is GIV:Gαi3 (hGαi3 with FITC-labelled GIV C-terminal peptide KTGSPGSEVVTLQQFLEESNKLTSVQIKSSS, SEQ ID NO: 1) (Homo sapiens, UniProt P08754). As to the kind of experiment: Inhibition of GIV:Gαi3 interaction by fluorescence polarization (FITC-GIV peptide binding to hGαi3); confirmed hits, FIG. 10.
Sequence of UniProt P08754 (P08754 whole entry): as the sequence (P08754 whole entry) above
Source text: FIG. 10. Further analysis of confirmed hits validate the assay to identify inhibitors of the target.
as §1, §2
The present invention provides a research tool assay for identifying a specific modulator of GNAI, comprising: (a) combining a drug candidate with GNAI and a C-terminal GIV peptide and determining if the drug candidate inhibits GNAI interaction with the C-terminal GIV peptide; and (b) combining the drug candidate with GNAI and a DAPLE peptide and determining if the drug candidate inhibits GNAI interaction with DAPLE peptide.
In embodiments, the C-terminal GIV peptide comprises the amino acid sequence of SEQ ID NO: 1. In embodiments, the DAPLE peptide comprises the amino acid sequence of SEQ ID NO:2.
In embodiments, the determining steps are detected by fluorescent polarization.
In embodiments, the invention provides an assay and method for screening for drug candidates which act as specific inhibitors against the GNAI:GIV interface. […]
As for the first step in the assay, this small region of 31 aa GIV peptide: […] (SEQ ID NO: 1) was arrived at after careful biochemistry determined that anything less than this is less efficient in binding or activation the G protein, GNAI. […]
A general note: Polarisation of emitted light reports the rotation of a fluorescent probe.

Sequence of GIV:Gαi (P08754 whole entry): as the sequence (P08754 whole entry) above

On to `O=C(O)C1=CC(=C(c2ccc(O)c(C(=O)O)c2)c2ccc(O)c(C(=O)O)c2)C=CC1=O` [ATA, aurintricarboxylic acid], for which the IC50 against GIV:Gαi3 interaction is ~5 µM.

Take `O=C(Nc1cccc(C(=O)Nc2ccc(S(=O)(=O)[O-])c3cc(S(=O)(=O)[O-])cc(S(=O)(=O)[O-])c23)c1)Nc1cccc(C(=O)Nc2ccc(S(=O)(=O)[O-])c3cc(S(=O)(=O)[O-])cc(S(=O)(=O)[O-])c23)c1.[Na+].[Na+].[Na+].[Na+].[Na+].[Na+]` [NF023, 8,8′-[carbonylbis(imino-3,1-phenylenecarbonylimino)]bis(1,3,5-naphthalene-trisulfonic acid) hexasodium salt]: the IC50 against GIV:Gαi3 interaction is ~5 µM. For the same compound, the “confirmation as hit by GST-pulldown” value at GIV:Gαi was “true hits”.

As for `Cc1ccc(C(=O)Nc2ccc(S(=O)(=O)O)c3cc(S(=O)(=O)O)cc(S(=O)(=O)O)c23)cc1NC(=O)c1cccc(NC(=O)Nc2cccc(C(=O)Nc3cc(C(=O)Nc4ccc(S(=O)(=O)O)c5cc(S(=O)(=O)O)cc(S(=O)(=O)O)c45)ccc3C)c2)c1` [Suramin, suramin], in assay [1], the Ki was found to be 49 µM.

With `Cc1ccc(C(=O)Nc2ccc(S(=O)(=O)O)c3cc(S(=O)(=O)O)cc(S(=O)(=O)O)c23)cc1NC(=O)c1cccc(NC(=O)Nc2cccc(C(=O)Nc3cc(C(=O)Nc4ccc(S(=O)(=O)O)c5cc(S(=O)(=O)O)cc(S(=O)(=O)O)c45)ccc3C)c2)c1` [suramin], on GIV:Gαi3 interaction, the IC50 was ~805 µM.

For the compound `CC[C@@]1(O)C(=O)OCc2c1cc1n(c2=O)Cc2cc3c(CN(C)C)c(O)ccc3nc2-1` [topotecan], the “confirmation as hit by GST-pulldown” value at GIV:Gαi is recorded as “false positive”.
